Measurements: patent US20110098332A1, “Insecticides for Increasing the Crop Yield” (BASF SE, priority 2007, published 2011)

Assays:
[1] = system: Spring wheat (cultivar Triso); assay: Crop yield increase in spring wheat after seed treatment (field trial); format: in vivo; conditions: seed treatment 100 ml/100 kg seeds (Regent FS 500, 50 g per 100 kg seeds), harvest 130 days after planting
Text: (§1) The N-min analysis method used in the examples determines the content of mineral nitrogen compounds in the soil (0-90 cm depth) at the beginning of the vegetative period. For this purpose, samples are taken in a depth of 0 to 90 cm and mineral nitrogen compounds (ammonium compounds and nitrates) are extracted and analyzed. The method is described in R. Thun et al., “Die Untersuchung von Böden, Methodenbuch Bd. 1, 4th edition 1991, edition VDLUFA (Verband Deutscher Landwirtschaftlicher Untersuchungs- and Forschungsanstalten), Darmstadt, Germany.
Spring wheat seeds (cultivar Triso) were treated with fipronil (used as commercially available product Regent FS 500; an FS formulation containing 500 g/l of active compound; 50 g per 100 kg seeds) in a HEGE 11 seed treatment apparatus. A part of the seeds remained untreated (control). Five days after the treatment, the seeds were planted near Gommersheim, Palatine, Germany, in a loamy sand with a pH of 6.7, and a tilling depth of 30 cm. Nitrogen content following N-min analysis was 52 kg N per ha in 0 to 90 cm depth. 400 seeds per m^2 were sown in 1.86 m by 5.5 m plots. Row spacing was 13 cm and seeding depth 3 cm. The treatments were supplied with either standard amount of nitrogen (140 kg N/ha) or reduced amount of nitrogen (30 kg N/ha). 130 days after planting, the wheat grains were harvested and weighed.

[2] = system: Winter wheat (cultivar Türkis); assay: Crop yield in winter wheat after seed treatment (field trial); format: in vivo; conditions: seed treatment 50 ml/100 kg seeds (Regent FS 500, 25 g per 100 kg seeds), harvest 269 days after planting
Text: as §1
Winter wheat seeds (cultivar Türkis) were treated with fipronil (used as commercially available product Regent FS 500; an FS formulation containing 500 g/l of active ccompound; 25 g per 100 kg seeds) in a HEGE 11 seed treatment apparatus. A part of the seeds remained untreated (control). Two days after the treatment, the seeds were planted in Böhl, Palatine, Germany, in a loamy sand with a pH of 6.7, and a tilling depth of 30 cm. Nitrogen content following N-min analysis was 26 kg N per ha in 0 to 90 cm depth. 400 seeds per m^2 were sown in 1.86 m by 5.5 m plots. Row spacing was 13 cm and seeding depth 3 cm. The treatments were supplied with either standard amount of nitrogen (180 kg N/ha) or reduced amount of nitrogen (50 kg N/ha). 269 days after planting, the wheat grains were harvested and weighed.

Structure (SMILES): N#Cc1nn(-c2c(Cl)cc(C(F)(F)F)cc2Cl)c(N)c1[S+]([O-])C(F)(F)F (stereo not shown) [fipronil]
- Crop yield ([1]; reduced nitrogen (30 kg N/ha), control 47.0): 51.4 dt/ha
- Crop yield ([1]; standard nitrogen (140 kg N/ha), control 62.8): 63.2 dt/ha
- Crop yield ([2]; reduced nitrogen (50 kg N/ha), control 82.6): 86.1 dt/ha
- Crop yield ([2]; standard nitrogen (180 kg N/ha), control 87.4): 87.4 dt/ha
